Where two headings read alike, the source gives them in different places. No end group written: not given here.
Legend:
[1] = test system: Pseudomonas aeruginosa type 1; type: cell-based; conditions: for Effective Dose Bactericidal pH 5.6 P. aeruginosa Molar Concentration: Table 5
Description: Bactericidal activity can be evaluated against a variety of bacteria such as Pseudomonas spp including aeruginosa and P. cepacia, E. coli B, and Staphylococcus aureus. The preferred organism is P. aeruginosa. Bactericidal activity is determined by identifying the effective dose for killing as the molar concentration of the peptide which results in at least a 60% killing of the bacteria, as determined by standard methods. Preferably, the peptide has an effective dose at a concentration of about 1×10^-4 M to about 1×10^-10 M, and more preferably 1×10^-7 M to 1×10^-9M . […] The effective dose for bactericidal activity of B/PI is seen at about […] . Bactericidal activity can also be determined by calculating a lethal dose 50 (LD50) using standard methods. The LD50 is that amount of peptide or protein that kills 50% of the bacteria when measured using standard dose response methods. A bactericidal peptide preferably has an LD50 of about 10^-4 M to about 10^-9 M , more preferably about 10^-7 to 10^-9 M .
(§1) The synthetically produced peptides were assayed for bactericidal activity against Pseudomonas aeruginosa, type 1, P. cepacia ATCC 25608, E. coli B, and Staphylococcus aureus 502A by standard methods.
(§2) Pseudomonas aeruginosa type 1 is a clinical isolate maintained in the laboratory since 1972. The isolate remains a smooth strain and was serotyped by the scheme of Homma. Homma, Jpn. J. Exp. Med., 46:329 (1976). A rough strain E. coli B and S. aureus 502A were obtained from Paul Quie, University of Minnesota. The characteristics of the S. aureus strain have been described in Shinefield et al., Amer. J. Dis. Chil., 105:646 (1963). Pseudomonas cepacia ATCC 25608 was purchased from the American Type Culture Collection in 1980. S. aureus and E. coli were maintained on nutrient agar plates and the Pseudomonas strains were maintained on blood agar plates.
(§3) Pyrogen-free solutions were used throughout this assay and all methods which follow. Log phase bacteria were prepared from a culture in brain heart infusion broth as previously described except that bacteria were washed and resuspended in saline with adjustment to an optical density at 650 nm which would yield 3×10^8 CFU/ml. Bacteria were then diluted 1:10 in 0.08M citrate phosphate buffer, pH 5.6 or pH 7.0, for use in the assay. S. aureus rapidly lost viability in the pH 5.6 buffer and was studied only at pH 7.0. Bactericidal activity was determined by dose response and where an LD50 is indicated, it was determined by linear regression.

Human lung fibroblasts = test: Toxicity for human lung fibroblasts, trypan blue exclusion; type: cell-based; conditions: 1.5 × 10^-4 M, 30 minutes; for Percent Viability DMEM: DMEM plus 10% FCS; for Percent Viability PBS: pH 7.4
Description: The synthetic peptides were assayed for toxicity to cultured eukaryotic cells. Human lung fibroblasts were grown in monolayers in Dulbecco's Modified Eagles' Medium (DMEM) with 10% fetal calf serum (FCS) and originated as primary cultures of lung mesenchymal cells. The cells were trypsinized, washed with either DMEM plus FCS or phosphate-buffered saline (PBS), pH 7.4, and incubated with peptide at a final cell concentration of 1×10^7 /ml. Nine volumes of cell suspension were diluted with one volume of 0.4% trypan blue and the cells were counted with a hemocytometer, while also determining the fraction of cells which were increased in permeability to dye. There was no significant loss of cell number due to exposure of the fibroblasts to peptide.
^a Viability was determined by trypan blue exclusion following
incubation of cells with peptide for 30 minutes in DMEM plus 10% FCS or i

E. coli B = test: Bactericidal assay, E. coli B; type: cell-based; conditions: E. coli B; pH 5.6; 3.0 × 10^-5 M; listed as #90-99
Description: as §1, §2, §3

E. coli 055: B5 LPS = test: Limulus amoebocyte lysate assay, neutralization of endotoxin; type: biochemical; conditions: for Effective Dose Endotoxin Neutralization (Molar Concentration): Table 8, LAL
Excerpt: The peptide selected can also have endotoxin neutralizing activity. […] Endotoxin neutralizing activity can also be measured by calculating an inhibitory dose 50 […] using standard does response methods. An inhibitory dose 50 is that amount of peptide that can inhibit 50% of the activity of endotoxin. Endotoxin activity can also be measured by determining the amount of release of tumor necrosis factor alpha (TNFα) from a macrophage cell line or by evaluating the symptoms of shock in animals. Peptides preferably neutralized endotoxin at a molar concentration of about 1×10^-4 M to about 10^-8 M , more preferably about 10^-5 M to about 10^-6 M .
The ability of synthetic peptides to neutralize endotoxin was detected with the E-TOXATE kit manufactured by Sigma Chemicals, St. Louis, Mo. […] Peptide was incubated with LPS at room temperature for 10 minutes in 100 μl of a 1:2 dilution of pyrogen-free saline, pH 6.4. The reaction was started by addition of 100 μl of amoebocyte lysate and the final volume was 200 μl.
^a The dose of peptide required to inhibit clotting of LAL by 100%.
Each tube contained 0.04 endotoxin units of E. coli LPS.

[2] = P. aeruginosa, pH 5.6, 3.0 × 10^-5 M
[3] = P. aeruginosa, pH 5.6, 1.2 × 10^-4 M
[4] = P. aeruginosa, pH 5.6, 3.0 × 10^-6 M
[5] = P. aeruginosa, pH 5.6, 1.5 × 10^-5 M

Molecule | Effective Dose Bactericidal pH 5.6 P. aeruginosa Molar Concentration ([1]; pH 5.6) | Effective Dose Endotoxin Neutralization (Molar Concentration) (E. coli 055: B5 LPS) | also measured
CC(C)C[C@H](NC(=O)[C@H](Cc1ccccc1)NC(=O)[C@H](CCCNC(=N)N)NC(=O)[C@H](CCCCN)NC(=O)[C@H](CCC(N)=O)NC(=O)[C@H](C)NC(=O)[C@H](CCCCN)NC(=O)[C@H](Cc1c[nH]c2ccccc12)NC(=O)[C@@H](N)CCCCN)C(=O)N[C@@H](CCCCN)C(=O)O [Peptide 5, kwkaqkrflk] |  |  | % Killing of 5 × 10^6 Bacteria ([1]; type 1, 1.5e-5 M, pH 5.6): 75%; LD50 for P. aeruginosa ([1]; type 1, pH 5.6): 8.2 µM; Percent Viability DMEM (Human lung fibroblasts): 98.0%; Percent Viability PBS (Human lung fibroblasts): 89.4%; % Killing of 5 × 10^6 Bacteria (E. coli B): 31%
CC[C@H](C)[C@H](NC(=O)[C@H](CCCCN)NC(=O)[C@@H](N)CSSC[C@H](N)C(=O)N[C@@H](CCCCN)C(=O)N[C@H](C(=O)N[C@@H](CO)C(=O)NCC(=O)N[C@@H](CCCCN)C(=O)N[C@@H](Cc1c[nH]c2ccccc12)C(=O)N[C@@H](CCCCN)C(=O)N[C@@H](C)C(=O)N[C@@H](CCC(N)=O)C(=O)N[C@@H](CCCCN)C(=O)N[C@@H](CCCNC(=N)N)C(=O)N[C@@H](Cc1ccccc1)C(=O)N[C@@H](CC(C)C)C(=O)N[C@@H](CCCCN)C(=O)O)[C@@H](C)CC)C(=O)N[C@@H](CO)C(=O)NCC(=O)N[C@@H](CCCCN)C(=O)N[C@@H](Cc1c[nH]c2ccccc12)C(=O)N[C@@H](CCCCN)C(=O)N[C@@H](C)C(=O)N[C@@H](CCC(N)=O)C(=O)N[C@@H](CCCCN)C(=O)N[C@@H](CCCNC(=N)N)C(=O)N[C@@H](Cc1ccccc1)C(=O)N[C@@H](CC(C)C)C(=O)N[C@@H](CCCCN)C(=O)O [dimer 8b] |  |  | % Killing of 5 × 10^6 Bacteria ([1]; type 1, 1.5e-6 M, pH 5.6): 52%
EFYSENHHNPKWKAQKRFLK [Peptide 18, efysenhhnpkwkaqkrflk] |  |  | % Killing of 5 × 10^6 Bacteria ([1]; type 1, 3.0e-5 M, pH 5.6): 79%; Percent Viability DMEM (Human lung fibroblasts): 98.8%; Percent Viability PBS (Human lung fibroblasts): 95.6%
anikisgkwk [Peptide 31] | 3.0 × 10^-5 M | 220 µM | % Killing of 5 × 10^6 Bacteria [1, 2]: 53%
ckisgkwkaqkrflkmsgnfc [Peptide 36] | 1.2 × 10^-4 M | 750 µM | % Killing of 5 × 10^6 Bacteria [1, 3]: 39%
ckwkaqkrflkc (CKWKAQKRFLKC; not fully specified (bridges); also: cyclic, kind and places of ring not given here) [Peptide 20a] | 3.0 × 10^-6 M | -- (not active at concentrations of 4.5 × 10^-4 M or less) | % Killing of 5 × 10^6 Bacteria [1, 4]: 76%
cnanikisgkwkaqkrflkmsgnfdlsic [Peptide 23] | 3 × 10^-7 M | 30 µM | % Killing of 5 × 10^6 Bacteria ([1]; P. aeruginosa, pH 5.6, 3 × 10^-7 M): 67%
flkmsgnfdl [Peptide 34] | -- (not active at concentrations of 1.2 × 10^-4 M or less) | 750 µM | 
iktkkflkkt [Peptide 24, reference compound] | 3.0 × 10^-5 M | -- (not active at concentrations of 4.5 × 10^-4 M or less) | % Killing of 5 × 10^6 Bacteria [1, 2]: 72%
isnanikisg [Peptide 30] | -- (not active at concentrations of 1.2 × 10^-4 M or less) | 450 µM | 
kisgkwkaqk [Peptide 32] | 1.25 × 10^-4 M | 450 µM | % Killing of 5 × 10^6 Bacteria ([1]; P. aeruginosa, pH 5.6, 1.25 × 10^-4 M): 33%
kisgkwkaqkrflkmsgnf [Peptide 35] | 1.5 × 10^-7 M | 450 µM | % Killing of 5 × 10^6 Bacteria ([1]; P. aeruginosa, pH 5.6, 1.5 × 10^-7 M): 58%; neutralization of endotoxin in the LAL (in words) (E. coli 055: B5 LPS; highest concentration tested 4.5×10^-4 M): did not neutralize endotoxin
kkkafrlakq [Peptide 28] | 3.0 × 10^-5 M | -- (not active at concentrations of 4.5 × 10^-4 M or less) | % Killing of 5 × 10^6 Bacteria [1, 2]: 68%; bacterial killing activity compared with parent peptide (in words) ([1]; pH 5.6, P. aeruginosa): little or no effect
kkkffrlakq [Peptide 27] | 3.0 × 10^-5 M | -- (not active at concentrations of 4.5 × 10^-4 M or less) | % Killing of 5 × 10^6 Bacteria [1, 2]: 49%; bacterial killing activity compared with parent peptide (in words) ([1]; pH 5.6, P. aeruginosa): little or no effect
kkkwfrlakq [Peptide 21] | 1.5 × 10^-5 M | -- (not active at concentrations of 4.5 × 10^-4 M or less) | % Killing of 5 × 10^6 Bacteria [1, 5]: 71%; bacterial killing activity compared with parent peptide (in words) ([1]; pH 5.6, P. aeruginosa): retained biological activity
ktkckflkkc [Peptide 25, reference compound] | 6.0 × 10^-6 M | -- (not active at concentrations of 4.5 × 10^-4 M or less) | % Killing of 5 × 10^6 Bacteria ([1]; P. aeruginosa, pH 5.6, 6.0 × 10^-6 M): 56%
kwkaqkrflkc [Peptide 20b] | 3.0 × 10^-6 M | -- (not active at concentrations of 4.5 × 10^-4 M or less) | % Killing of 5 × 10^6 Bacteria [1, 4]: 75%
kwkfkqralk [Peptide 26] | 1.5 × 10^-5 M | 300 µM | % Killing of 5 × 10^6 Bacteria [1, 5]: 61%
msgnfdlsie [Peptide 29] | -- (not active at concentrations of 1.2 × 10^-4 M or less) | 220 µM | 
nanikisgkwkaqkrflkmsgnfdlsi [Peptide 22] | 6.0 × 10^-8 M | 30 µM | % Killing of 5 × 10^6 Bacteria ([1]; P. aeruginosa, pH 5.6, 6.0 × 10^-8 M): 74%
qkrflkmsgn [Peptide 33] | -- (not active at concentrations of 1.2 × 10^-4 M or less) | 450 µM | 
sdsflkikhlgkghysfysmdirefq [Peptide 12] | 1.5 × 10^-5 M | 75 µM | % Killing of 5 × 10^6 Bacteria [1, 5]: 58%
wkkfkqralk [Peptide 19] | 1.2 × 10^-4 M | -- (not active at concentrations of 4.5 × 10^-4 M or less) | % Killing of 5 × 10^6 Bacteria [1, 3]: 65%; bactericidal activity, fold reduced versus the 90-99 peptide ([1]; pH 5.6, randomized sequence): 8 fold
